Results: patent US10799477B2, “Pharmaceutical composition for preventing or treating LDL cholesterol-related diseases, containing ribosome-binding preparation” (PUSAN NATIONAL UNIVERSITY INDUSTRY UNIVERSITY, priority 2016, dated 2020)

Legend:
HCT-8 cells = experiment: Lipid droplets in HCT-8 cells, Oil Red O staining; format: cell-based, human; conditions: 1000 mg/ml DON or 2 μM ANS, 24 h, FIG. 2
Description: To confirm the effect of ribosome inactivation on fat accumulation, enterocyte and hepatocyte exposed to ribosome inactivation stress using the ribosome-binding agent were stained with Oil Red O.
Specifically, HCT-8 cells and HepG2 cells were obtained from the American Type Culture Collection (ATCC Rockville, Md., USA). HCT-8 and HepG2 cells were treated with vehicle, […], or 2 μM anisomycin (ANS) for 24 h. […] The staining results of HCT-8 cells are illustrated in FIG. 2 and the staining results of HepG2 cells are illustrated in FIG. 3.

LDLR [1] = experiment: LDLR immunohistochemistry in ileum and jejunum of mice fed DON; format: in vivo; conditions: 25 mg/kg DON oral feeding, after 24 hours, IHC, FIG. 12
Description: Further, additional animal studies were performed to determine whether ribosome-inactivation stress increases a level of LDLR expression in the small intestine. Six-week-old male B6C3F1 mice (C57B1/6J×C3H/HeJ) were purchased from Samtako Bio Korea (Osan, South Korea). Animal experiments were performed according to the animal test method as approved in the Laboratory Animal Care Committee (PNU-2010-0291). Vehicle or 25 mg/kg DON was administered to the mice via oral feeding. After 24 hours, immunohistochemistry (IHC) was performed on ileum and jejunum to measure LDLR expression levels. The results are illustrated in FIG. 12.

LDLR [2] = experiment: Protein level of LDLR in HCT-8 cells, Western blot; format: cell-based, human; conditions: whole cell lysates, FIG. 9
Description: Further, HCT-8 cells were treated with vehicle or 1000 ng/ml DON for the indicated time. Thereafter, protein levels of LDLR were measured using whole cell lysates via Western blots. Specifically, the cells were washed with phosphate buffer. Subsequently, the cells were dissolved in lysis buffer (1% [w/v] SDS, 1.0 mM sodium orthovanadate, and 10 mM Tris [pH 7.4]). The lysate was sonicated for 5 seconds. The lysate was quantitated using the BCA protein assay kit (Pierce, Rockford, Ill., USA). Subsequently, immunoblotting was carried out to confirm the level of the protein in the cells. The results are illustrated in FIG. 9.

LDLR [3] = experiment: mRNA level of LDLR in HepG2 cells, real-time RT-PCR; format: cell-based, human; conditions: HepG2 cells, 100, 500, 1000 ng/ml DON or 500, 1000, 2000 nM ANS, 1 hour, dose dependent, FIG. 11
LDLR [4] = experiment: mRNA level of LDLR in HCT-8 cells, real-time RT-PCR; format: cell-based, human; conditions: HCT-8 cells, 100, 500, 1000 ng/ml DON or 500, 1000, 2000 nM ANS, 2 hours, dose dependent, FIG. 10
Description: Further, HCT-8 cells were treated with vehicle or 1000 ng/ml DON for the indicated time. In these treated cells, an mRNA level of LDLR was measured using real-time RT-PCR. Specifically, RNA was extracted using RiboEX (GeneAll Biotechnology, Seoul, Korea). Subsequently, the RNA (100 ng) from each sample was transcribed into cDNA using Prime Moloney murine leukemia virus reverse transcriptase (Genetbio, Nonsan, South Korea). The cDNA was then amplified using n-Taq DNA polymerase (Enzynomics, Seoul, South Korea). The amplified cDNA was treated at 95° C. for 2 minutes. The cDNA was then treated for 30 seconds at 95° C., for 30 seconds at 58° C. and for 30 seconds at 72° C. at each of different cycles. The thus treated cDNA was amplified and the amplification thereof was confirmed by electrophoresis. FAM was used as a fluorescent reporter staining drug. FAM was conjugated to a 5′ terminal of a product of the amplified cDNA. The resulting product was subjected to real-time RT-PCR using an iCycler thermal cycler (Bio-Rad). […]
Additionally, to determine the effect of chemical ribosome inactivators (DON, ANS) at different doses on the LDLR expression level, HCT-8 cells were treated with vehicle, 0, 100, 500, 1000 ng/ml DON or 0, 500, 1000, 2000 nM ANS for 2 hours. Then, mRNA levels of LDLR in the cells were measured using real-time RT-PCR. […] The mRNA level of the LDLR of the cells was measured. […]

Row | Structure (SMILES) | fat accumulation in HCT-8 cells (HCT-8 cells) | level of LDLR expression in the mouse small intestine (villus epithelium of ileum and jejunum) (LDLR [1]) | protein levels of LDLR (LDLR [2]) | mRNA level of LDLR (LDLR [3]) | mRNA level of LDLR (LDLR [4])
1 | CC1=C[C@H]2O[C@@H]3[C@H](O)C[C@](C)([C@@]2(CO)[C@H](O)C1=O)[C@]31CO1 [DON, deoxynivalenol] | dose-dependently increased | increase | increases | increases | increases
2 | COc1ccc(C[C@H]2NC[C@H](O)[C@H]2OC(C)=O)cc1 [ANS, anisomycin] | dose-dependently increased |  | increases | increases | increases
